Data published in ChEMBL document CHEMBL4630907 (2021).
The source made the active and inactive calls. The rule behind the calls is not given here.

Key:
[1] = molecular target: T1, Bromodomain-containing protein 2 (Homo sapiens, UniProt P25440); assay: BRD2 Bromoscan (DiscoverX)
[2] = molecular target: D(4) dopamine receptor (Homo sapiens) (UniProt P21917); details: Compound concentration 10.0 uM
[3] = molecular target: Beta-1 adrenergic receptor (Homo sapiens) (UniProt P08588); details: Compound concentration 10.0 uM
[4] = (§1) Cross screening panel
[5] = molecular target: 5-hydroxytryptamine receptor 1D (Homo sapiens) (UniProt P28221); details: Compound concentration 10.0 uM
[6] = molecular target: D(4) dopamine receptor (Homo sapiens, UniProt P21917); assay: GPCRScan assay: inhibition of D4; set-up: radioligand conc. used [nm] 0.6 – 1.7, parental cells Stable HEK
Sequence of D(4) dopamine receptor (P21917 whole entry): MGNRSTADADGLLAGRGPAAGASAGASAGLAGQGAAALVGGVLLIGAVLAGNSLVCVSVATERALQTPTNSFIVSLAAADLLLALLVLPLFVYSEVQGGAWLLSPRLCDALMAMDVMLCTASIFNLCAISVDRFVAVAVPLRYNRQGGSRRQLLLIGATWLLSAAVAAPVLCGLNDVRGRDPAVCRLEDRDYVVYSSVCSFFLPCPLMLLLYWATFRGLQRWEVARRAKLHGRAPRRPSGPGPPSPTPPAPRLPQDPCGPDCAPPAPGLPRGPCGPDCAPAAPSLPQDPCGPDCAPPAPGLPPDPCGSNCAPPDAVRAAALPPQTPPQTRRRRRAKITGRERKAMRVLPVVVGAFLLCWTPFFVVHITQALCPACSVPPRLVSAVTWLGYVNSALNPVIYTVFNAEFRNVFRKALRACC

[7] = molecular target: D(3) dopamine receptor (Homo sapiens, UniProt P35462); assay: GPCRScan assay: inhibition of D3; set-up: radioligand conc. used [nm] 0.5 – 1.8, parental cells HEKT
Sequence of D(3) dopamine receptor (P35462 whole entry): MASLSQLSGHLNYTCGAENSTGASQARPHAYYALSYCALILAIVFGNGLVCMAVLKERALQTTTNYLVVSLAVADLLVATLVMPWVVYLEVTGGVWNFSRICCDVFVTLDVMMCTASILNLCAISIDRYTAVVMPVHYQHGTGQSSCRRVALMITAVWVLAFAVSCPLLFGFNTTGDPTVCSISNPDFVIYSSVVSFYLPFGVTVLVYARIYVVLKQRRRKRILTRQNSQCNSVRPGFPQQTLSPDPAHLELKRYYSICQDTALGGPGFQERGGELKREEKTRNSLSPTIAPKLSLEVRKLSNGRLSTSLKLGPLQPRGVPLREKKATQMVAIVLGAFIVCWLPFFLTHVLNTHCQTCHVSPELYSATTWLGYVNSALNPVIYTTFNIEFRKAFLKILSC

[8] = molecular target: Histone acetyltransferase p300 (Homo sapiens, UniProt Q09472); assay: EP300 DiscoverX BROMOscan
[9] = molecular target: Muscarinic acetylcholine receptor M3 (Homo sapiens) (UniProt P20309); details: Compound concentration 10.0 uM
[10] = molecular target: T2, 5-hydroxytryptamine receptor 3A (Homo sapiens, UniProt P46098); assay: GPCRScan assay: inhibition of 5-HT3; set-up: radioligand conc. used [nm] 1.0 – 2.0, parental cells HEKT
T2 sequence (P46098 whole entry): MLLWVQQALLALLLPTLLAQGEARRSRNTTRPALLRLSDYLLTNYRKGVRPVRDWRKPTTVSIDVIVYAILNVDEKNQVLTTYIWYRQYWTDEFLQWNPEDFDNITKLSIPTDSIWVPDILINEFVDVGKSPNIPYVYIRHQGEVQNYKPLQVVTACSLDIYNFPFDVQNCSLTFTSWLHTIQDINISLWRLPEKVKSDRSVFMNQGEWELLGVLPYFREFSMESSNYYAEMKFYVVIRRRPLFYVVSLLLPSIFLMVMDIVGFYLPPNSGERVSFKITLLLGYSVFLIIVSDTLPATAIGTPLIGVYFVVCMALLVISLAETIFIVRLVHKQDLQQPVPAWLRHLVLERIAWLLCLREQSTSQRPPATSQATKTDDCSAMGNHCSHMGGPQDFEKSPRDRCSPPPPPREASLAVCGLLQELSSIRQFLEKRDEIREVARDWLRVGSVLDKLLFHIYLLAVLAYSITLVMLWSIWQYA

[11] = molecular target: Sigma non-opioid intracellular receptor 1 (Homo sapiens) (UniProt Q99720); details: Compound concentration 10.0 uM
[12] = molecular target: Alpha-2C adrenergic receptor (Homo sapiens) (UniProt P18825); details: Compound concentration 10.0 uM
[13] = molecular target: T1, Bromodomain-containing protein 2; assay: BRD2(2) DiscoverX BROMOscan
[14] = molecular target: 5-hydroxytryptamine receptor 7 (Homo sapiens) (UniProt P34969); details: Compound concentration 10.0 uM
[15] = molecular target: GABA-A receptor; anion channel; assay: GPCRScan assay: inhibition of GABAA; format: protein-complex assay, Rattus norvegicus; set-up: radioligand conc. used [nm] 9.50 – 25.0, parental cells brain tissue
[16] = molecular target: 5-hydroxytryptamine receptor 6 (Homo sapiens) (UniProt P50406); details: Compound concentration 10.0 uM
[17] = molecular target: D(1B) dopamine receptor (Homo sapiens) (UniProt P21918); details: Compound concentration 10.0 uM
[18] = molecular target: ATPase family AAA domain-containing protein 2B (Homo sapiens, UniProt Q9ULI0); assay: ATAD2B DiscoverX BROMOscan
[19] = molecular target: Protein polybromo-1 (Homo sapiens, UniProt Q86U86); assay: PBRM1(2) DiscoverX BROMOscan
[20] = molecular target: T3, Bromodomain-containing protein 3 (Homo sapiens, UniProt Q15059); assay: BET mutant TR-FRET assay (BRD3 BD2)
[21] = molecular target: Histamine H4 receptor (Homo sapiens) (UniProt Q9H3N8); details: Compound concentration 10.0 uM
[22] = molecular target: GABA-A receptor; anion channel (Rattus norvegicus) (UniProt O09028+P15431+P18506+P18508+P19969+P20236+P23574+P23576+P28471+P28473+P30191+P62813+P63079+P63138+Q91ZM7+Q9ES14); details: Compound concentration 10.0 uM
[23] = molecular target: GABA-A receptor; anion channel; assay: GPCRScan assay: inhibition of GABAA/BZP; format: protein-complex assay, Rattus norvegicus; set-up: radioligand conc. used [nm] 0.6 – 4.0, parental cells brain tissue
[24] = molecular target: Mu-type opioid receptor (Homo sapiens, UniProt P35372); assay: as §1
[25] = molecular target: cGMP-inhibited 3',5'-cyclic phosphodiesterase 3A (Homo sapiens, UniProt Q14432); assay: as §1
[26] = molecular target: Phosphatidylinositol 4,5-bisphosphate 3-kinase catalytic subunit gamma isoform (Homo sapiens, UniProt P48736); assay: as §1
[27] = molecular target: Potassium voltage-gated channel subfamily A member 5 (Homo sapiens, UniProt P22460); assay: as §1
[28] = molecular target: Sodium-dependent serotonin transporter (Homo sapiens, UniProt P31645); assay: as §1
[29] = molecular target: Cytochrome P450 3A4 (Homo sapiens, UniProt P08684); assay: as §1
Sequence of Cytochrome P450 3A4 (P08684 whole entry): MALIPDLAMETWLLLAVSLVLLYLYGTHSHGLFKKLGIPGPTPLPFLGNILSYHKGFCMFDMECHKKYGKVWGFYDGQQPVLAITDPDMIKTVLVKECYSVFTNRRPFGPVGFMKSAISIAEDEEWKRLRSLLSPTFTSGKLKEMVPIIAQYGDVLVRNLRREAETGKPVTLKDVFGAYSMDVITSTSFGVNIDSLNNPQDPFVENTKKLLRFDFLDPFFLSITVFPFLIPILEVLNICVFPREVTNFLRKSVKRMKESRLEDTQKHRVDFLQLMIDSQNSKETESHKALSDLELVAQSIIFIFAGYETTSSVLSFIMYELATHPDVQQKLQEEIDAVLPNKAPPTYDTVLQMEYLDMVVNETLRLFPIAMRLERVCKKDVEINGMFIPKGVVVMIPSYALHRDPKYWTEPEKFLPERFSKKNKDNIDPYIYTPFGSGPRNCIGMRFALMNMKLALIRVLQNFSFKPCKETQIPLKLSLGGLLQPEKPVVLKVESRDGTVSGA

[30] = molecular target: D(1A) dopamine receptor (Homo sapiens, UniProt P21728); assay: as §1
[31] = molecular target: 5-hydroxytryptamine receptor 2C (Homo sapiens, UniProt P28335); assay: as §1
Sequence of 5-hydroxytryptamine receptor 2C (P28335 whole entry): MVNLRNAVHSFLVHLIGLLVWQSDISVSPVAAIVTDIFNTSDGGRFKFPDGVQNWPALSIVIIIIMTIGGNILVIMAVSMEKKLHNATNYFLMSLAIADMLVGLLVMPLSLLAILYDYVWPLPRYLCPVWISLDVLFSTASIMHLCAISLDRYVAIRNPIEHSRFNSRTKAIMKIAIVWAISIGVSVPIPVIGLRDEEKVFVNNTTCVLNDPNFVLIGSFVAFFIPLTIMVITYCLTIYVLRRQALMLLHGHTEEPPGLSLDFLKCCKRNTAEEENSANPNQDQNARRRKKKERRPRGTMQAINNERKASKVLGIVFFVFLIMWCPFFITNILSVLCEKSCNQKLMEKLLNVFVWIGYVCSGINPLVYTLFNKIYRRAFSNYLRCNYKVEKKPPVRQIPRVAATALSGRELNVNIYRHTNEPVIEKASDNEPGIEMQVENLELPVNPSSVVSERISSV

[32] = molecular target: Acetylcholine receptor subunit alpha (Homo sapiens, UniProt P02708); assay: as §1
Sequence of Acetylcholine receptor subunit alpha (P02708 whole entry): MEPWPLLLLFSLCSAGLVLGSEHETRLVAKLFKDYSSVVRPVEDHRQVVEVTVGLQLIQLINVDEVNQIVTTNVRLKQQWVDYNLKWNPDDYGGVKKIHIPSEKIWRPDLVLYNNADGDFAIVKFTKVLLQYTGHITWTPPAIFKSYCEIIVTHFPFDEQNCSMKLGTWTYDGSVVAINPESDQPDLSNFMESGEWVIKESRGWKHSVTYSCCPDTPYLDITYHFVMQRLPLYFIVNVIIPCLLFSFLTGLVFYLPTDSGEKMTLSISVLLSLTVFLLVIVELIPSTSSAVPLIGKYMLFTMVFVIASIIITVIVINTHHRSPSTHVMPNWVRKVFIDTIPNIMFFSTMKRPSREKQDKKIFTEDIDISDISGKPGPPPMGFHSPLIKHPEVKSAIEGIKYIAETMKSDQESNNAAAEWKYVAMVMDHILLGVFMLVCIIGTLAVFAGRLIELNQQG

[33] = molecular target: T4, 5-hydroxytryptamine receptor 2A (Homo sapiens, UniProt P28223); assay: as §1
T4 sequence (P28223 whole entry): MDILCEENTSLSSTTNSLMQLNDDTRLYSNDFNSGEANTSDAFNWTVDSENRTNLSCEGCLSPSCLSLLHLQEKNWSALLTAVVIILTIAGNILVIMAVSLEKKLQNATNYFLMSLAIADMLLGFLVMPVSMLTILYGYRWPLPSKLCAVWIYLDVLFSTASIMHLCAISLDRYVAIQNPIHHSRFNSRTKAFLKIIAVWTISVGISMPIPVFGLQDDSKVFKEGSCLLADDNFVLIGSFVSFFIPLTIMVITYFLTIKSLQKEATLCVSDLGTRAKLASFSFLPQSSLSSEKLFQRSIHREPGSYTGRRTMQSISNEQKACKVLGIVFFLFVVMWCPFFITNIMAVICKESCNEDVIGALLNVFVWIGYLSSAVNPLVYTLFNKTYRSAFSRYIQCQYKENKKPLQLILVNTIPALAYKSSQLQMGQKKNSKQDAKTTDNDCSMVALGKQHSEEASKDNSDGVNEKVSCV

[34] = molecular target: Glutamate receptor ionotropic, NMDA 2B (Homo sapiens, UniProt Q13224); assay: as §1
[35] = molecular target: Sodium channel protein type 5 subunit alpha (Homo sapiens, UniProt Q14524); assay: as §1
[36] = molecular target: Alpha-2C adrenergic receptor (Homo sapiens, UniProt P18825); assay: as §1
[37] = molecular target: 5-hydroxytryptamine receptor 1B (Homo sapiens, UniProt P28222); assay: as §1
Sequence of 5-hydroxytryptamine receptor 1B (P28222 whole entry): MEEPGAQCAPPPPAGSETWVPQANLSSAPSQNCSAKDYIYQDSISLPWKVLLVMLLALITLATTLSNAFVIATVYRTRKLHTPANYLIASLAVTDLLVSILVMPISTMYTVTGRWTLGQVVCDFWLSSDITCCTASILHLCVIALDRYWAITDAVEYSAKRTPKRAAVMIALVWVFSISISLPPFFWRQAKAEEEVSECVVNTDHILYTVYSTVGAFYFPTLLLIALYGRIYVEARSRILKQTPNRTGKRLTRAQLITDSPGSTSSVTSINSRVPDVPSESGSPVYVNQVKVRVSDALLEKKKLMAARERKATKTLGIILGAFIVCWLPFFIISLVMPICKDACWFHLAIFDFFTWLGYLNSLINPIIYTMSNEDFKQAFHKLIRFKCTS

[38] = molecular target: Beta-2 adrenergic receptor (Homo sapiens, UniProt P07550); assay: as §1
Sequence of Beta-2 adrenergic receptor (P07550 whole entry): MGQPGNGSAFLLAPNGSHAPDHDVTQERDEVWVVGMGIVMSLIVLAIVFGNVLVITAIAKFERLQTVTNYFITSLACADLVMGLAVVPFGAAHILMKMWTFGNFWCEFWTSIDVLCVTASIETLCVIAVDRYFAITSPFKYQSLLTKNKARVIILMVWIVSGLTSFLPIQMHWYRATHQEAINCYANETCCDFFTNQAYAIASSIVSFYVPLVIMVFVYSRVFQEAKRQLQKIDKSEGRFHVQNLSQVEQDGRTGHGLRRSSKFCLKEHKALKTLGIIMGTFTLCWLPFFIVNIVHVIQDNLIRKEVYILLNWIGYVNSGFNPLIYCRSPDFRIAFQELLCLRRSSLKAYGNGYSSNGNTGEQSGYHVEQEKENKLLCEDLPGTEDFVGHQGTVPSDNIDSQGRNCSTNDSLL

[39] = molecular target: Adenosine receptor A2a (Homo sapiens, UniProt P29274); assay: as §1
[40] = molecular target: Solute carrier organic anion transporter family member 1B1 (Homo sapiens, UniProt Q9Y6L6); assay: as §1
[41] = molecular target: D(2) dopamine receptor (Homo sapiens, UniProt P14416); assay: as §1
Sequence of D(2) dopamine receptor (P14416 whole entry): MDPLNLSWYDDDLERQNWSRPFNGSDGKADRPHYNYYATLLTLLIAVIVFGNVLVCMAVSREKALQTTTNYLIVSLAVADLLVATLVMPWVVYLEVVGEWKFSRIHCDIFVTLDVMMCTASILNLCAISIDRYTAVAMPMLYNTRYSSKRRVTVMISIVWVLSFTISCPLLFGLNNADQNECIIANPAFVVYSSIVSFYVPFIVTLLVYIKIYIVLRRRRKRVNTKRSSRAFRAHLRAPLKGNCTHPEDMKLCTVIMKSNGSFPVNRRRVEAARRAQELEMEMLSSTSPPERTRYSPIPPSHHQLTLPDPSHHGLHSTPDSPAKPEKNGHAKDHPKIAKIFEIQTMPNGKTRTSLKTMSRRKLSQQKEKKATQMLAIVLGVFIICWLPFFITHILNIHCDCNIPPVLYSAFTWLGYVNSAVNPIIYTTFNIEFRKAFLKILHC

[42] = molecular target: 3',5'-cyclic-AMP phosphodiesterase 4B (Homo sapiens, UniProt Q07343); assay: as §1
[43] = molecular target: T4, 5-hydroxytryptamine receptor 2A; details: Compound concentration 10.0 uM
[44] = molecular target: Alpha-1B adrenergic receptor (Homo sapiens) (UniProt P35368); details: Compound concentration 10.0 uM
[45] = molecular target: T3, Bromodomain-containing protein 3; assay: TR-FRET assay (BRD3 BD2)

T1 sequence (P25440 whole entry): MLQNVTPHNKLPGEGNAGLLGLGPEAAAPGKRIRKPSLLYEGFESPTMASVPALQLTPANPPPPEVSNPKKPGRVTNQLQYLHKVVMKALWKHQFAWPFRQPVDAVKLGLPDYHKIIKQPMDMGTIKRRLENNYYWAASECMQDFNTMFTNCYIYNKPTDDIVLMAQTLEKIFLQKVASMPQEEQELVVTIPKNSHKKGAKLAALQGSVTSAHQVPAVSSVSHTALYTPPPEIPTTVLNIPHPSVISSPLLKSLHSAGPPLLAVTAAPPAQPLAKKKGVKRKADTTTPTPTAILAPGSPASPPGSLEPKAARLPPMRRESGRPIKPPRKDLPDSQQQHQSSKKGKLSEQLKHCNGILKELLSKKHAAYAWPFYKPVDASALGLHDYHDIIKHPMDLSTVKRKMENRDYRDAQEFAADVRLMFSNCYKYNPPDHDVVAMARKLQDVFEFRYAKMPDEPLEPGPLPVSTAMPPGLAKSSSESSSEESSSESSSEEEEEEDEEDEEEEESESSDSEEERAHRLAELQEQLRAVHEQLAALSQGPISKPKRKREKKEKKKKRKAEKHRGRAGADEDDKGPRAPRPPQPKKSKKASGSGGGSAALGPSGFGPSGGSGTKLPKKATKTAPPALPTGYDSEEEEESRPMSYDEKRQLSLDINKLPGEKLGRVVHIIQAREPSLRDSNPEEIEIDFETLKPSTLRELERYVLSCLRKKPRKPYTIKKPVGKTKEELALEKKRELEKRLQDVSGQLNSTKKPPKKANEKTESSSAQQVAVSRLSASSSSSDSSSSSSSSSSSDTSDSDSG
Sequence of D(4) dopamine receptor (Homo sapiens) (P21917 whole entry): as the sequence (P21917 whole entry) above

COCc1nc2cnc3cc(-c4c(C)noc4C)c(OC[C@H]4CCNC4)cc3c2n1[C@H](C)c1ccccc1 [GSK778]
Kd [1]: 0.013 µM (active) | inhibition [2]: 79.5% | inhibition [3]: 4.82% | pMEC [4]: < 4 | inhibition [5]: 14.8% | Ki ([6]; read-out: Ki): 0.857 µM | Ki ([6]; read-out: pKi (converted)): 0.813 µM | Ki ([7]; read-out: Ki): 0.486 µM | Ki ([7]; read-out: pKi (converted)): 0.407 µM | Kd [8]: 5.7 µM | inhibition [9]: -3.35% | Ki [10]: 4.46 µM | inhibition [11]: 38.5% | inhibition [12]: 15.3% | Kd [13]: 0.84 µM | inhibition [14]: -5.39% | Ki [15]: 1.6 µM | pKi [15]: 5.81 | inhibition [16]: -9.08% | inhibition [17]: 31.7% | Kd [18]: 25 µM | Kd [19]: 29 µM | pIC50 [20]: 6 | inhibition [21]: 29.3% | inhibition [22]: 52.7% | Ki [23]: 1.97 µM | pKi [23]: 5.75 | EC50 [24]: > 100 µM | IC50 [25]: > 100 µM | IC50 [26]: > 31.6 µM | IC50 [27]: > 50.1 µM | IC50 [28]: 39.8 µM | IC50 [29]: 6.31 µM | IC50 [30]: > 100 µM | EC50 [31]: > 25.1 µM | IC50 [31]: > 25.1 µM | EC50 [32]: > 50.1 µM | IC50 [32]: 1 µM | EC50 [33]: > 25.1 µM | IC50 [33]: > 25.1 µM | IC50 [34]: > 50.1 µM | IC50 [35]: 50.1 µM | EC50 [36]: > 100 µM | EC50 [37]: > 100 µM | IC50 [37]: > 100 µM | EC50 [38]: > 100 µM | IC50 [38]: > 100 µM | EC50 [39]: > 100 µM | IC50 [40]: 39.8 µM | EC50 [41]: > 100 µM | IC50 [41]: 3.16 µM | IC50 [42]: 39.8 µM | inhibition [43]: -5.06% | inhibition [44]: 4.2% | IC50 [45]: 1.21 µM (not active)
